Test results reported in publication PMC7269481, “ZN148 Is a Modular Synthetic Metallo-β-Lactamase Inhibitor That Reverses Carbapenem Resistance in Gram-Negative Pathogens In Vivo” (Antimicrobial Agents and Chemotherapy, 2020).
Where two headings read alike, the source gives them in different places.

Assays:
[1] = tested on: strains coproducing MBLs and class D carbapenemases; experiment: Carbapenem potentiation, strains coproducing MBLs and class D carbapenemases; assay type: cell-based; settings: with a few exceptions; 50 μM ZN148
Method: (§1) MICs of carbapenems alone and in combination with inhibitors were determined by broth microdilution according to the Clinical and Laboratory Standards Institute (CLSI) guidelines ([48]) using either premade plates (TREK Diagnostic Systems/Thermo Fisher Scientific, East Grinstead, United Kingdom) with meropenem or in-house-prepared plates with meropenem, imipenem, and doripenem. ZN148 and other inhibitors were tested at a fixed concentration of 50 μM. Cation-adjusted Mueller-Hinton medium (TREK Diagnostic Systems/Thermo Fisher Scientific; Becton Dickinson, Franklin Lakes, NJ) were used as growth medium. The plates were incubated for 20 h at 37°C. ZN148, ZN222, ZN223, ZN228, and TPA were initially tested in combination with meropenem using two indicator strains: NDM-1-producing K. pneumoniae ([49], [50]) and VIM-2-producing P. aeruginosa ([51]). […]

[2] = tested on: MBL-producing P. aeruginosa clinical strains; experiment: Carbapenem MIC, MBL-producing P. aeruginosa; assay type: cell-based; settings: 50 μM ZN148; n = 52
Method: (§2) MICs of carbapenems alone and in combination with inhibitors were determined by broth microdilution according to the Clinical and Laboratory Standards Institute (CLSI) guidelines ([48]) using either premade plates (TREK Diagnostic Systems/Thermo Fisher Scientific, East Grinstead, United Kingdom) with meropenem or in-house-prepared plates with meropenem, imipenem, and doripenem. ZN148 and other inhibitors were tested at a fixed concentration of 50 μM. Cation-adjusted Mueller-Hinton medium (TREK Diagnostic Systems/Thermo Fisher Scientific; Becton Dickinson, Franklin Lakes, NJ) were used as growth medium. The plates were incubated for 20 h at 37°C. ZN148, ZN222, ZN223, ZN228, and TPA were initially tested in combination with meropenem using two indicator strains: NDM-1-producing K. pneumoniae ([49], [50]) and VIM-2-producing P. aeruginosa ([51]). The activity of ZN148 were subsequently tested against two extended strain collections: (i) in combination with meropenem against MBL-producing Enterobacterales (n = 62), MBL-producing P. aeruginosa (n = 9) and MBL- and class D carbapenemase-coproducing Enterobacterales (n = 5) from the strain collection at the Norwegian National Advisory Unit on Detection of Antimicrobial Resistance and (ii) in combination with meropenem, imipenem, and doripenem against globally collected MBL-producing E. coli (n = 87), K. pneumoniae (n = 85), P. aeruginosa (n = 52), and A. baumannii (n = 6), MBL- and class A/D carbapenemase-coproducing E. coli (n = 11), K. pneumoniae (n = 15) and A. baumannii (n = 7) at IHMA Europe, Sàrl, Switzerland. E. coli ATCC 25922 and P. aeruginosa ATCC 27853 were used as quality control strains. The MBL inhibitors were also tested for intrinsic antibacterial activity against the strains.

[3] = biological target: T1, VIM-2 (Escherichia coli, UniProt Q5U7L7); experiment: Zinc content determination by ICP-MS, VIM-2; assay type: biochemical; settings: ICP-MS after preincubation
T1 construct: made in house
Method: Inductively coupled plasma mass spectrometry (ICP-MS) was used to investigate the chelating property of ZN148 by measuring the zinc concentration (Zn^66) after incubation of VIM-2 with or without ZN148 in zinc depleted 50 mM HEPES buffer (pH 7.5; Chelex HEPES buffer). The Chelex buffer was prepared by stirring 2 g of Chelex resin (Bio-Rad, Hercules, CA) in 100 ml of 50 mM HEPES buffer (pH 7.5). The resin was subsequently removed by sterile filtration (Merck Millipore, 0.22 μm). VIM-2 (10 g/liter) was diluted to 12.5 mg/liter and mixed with ZN148 at different final concentrations (0, 12.5, 125, and 1250 μM) in Chelex HEPES buffer. All solutions were allowed to incubate for 30 min on ice and subsequently concentrated by centrifugation (at 4,000 × g, 4°C for 25 min) to a volume of 250 μl using centrifugal molecular cutoff filters (Merck Millipore, 10,000 Da). […] Per inhibitor concentration, at least three biological replicates were performed and injected and measured in triplicates. For the MS analysis the kinetic energy discrimination mode with a helium flow rate of 5.7 ml/min, 20 sweeps per reading, and a dwell time of 100 ms/atomic mass unit (AMU) for Zn^66 and 50 ms/AMU for Rh^103 were applied. […] The zinc concentration within the samples was determined based on an external calibration curve (0, 290, 580, 1,160, and 2,320 μg/liter). […]

[4] = tested on: K. pneumoniae with NDM (n=95); experiment: Meropenem MIC distribution, K. pneumoniae with NDM; assay type: cell-based; settings: MEM alone or +50 µM ZN148
Method: as §2

[5] = tested on: E. coli with VIM (n=7); experiment: Meropenem MIC distribution, E. coli with VIM; assay type: cell-based; settings: MEM alone or +50 µM ZN148
Method: as §2

[6] = tested on: M. morganii co-producing MBLs and class A/D serine carbapenemases; experiment: Meropenem MIC, M. morganii co-producing NDM-1 and OXA-48; assay type: cell-based; settings: Morganella morganii; NDM-1 + OXA-48 strain; meropenem alone or with 50µM ZN148
Method: as §1

[7] = tested on: class A carbapenemase (KPC)-producing E. coli; experiment: Carbapenem MIC, class A carbapenemase-producing E. coli; assay type: cell-based; settings: carbapenem alone or with 50µM ZN148
Method: as §2

| Structure (SMILES) | potentiation of meropenem, doripenem, and imipenem [1] | strains with restored clinical susceptibility, in combination with doripenem [2] [%] | strains with restored clinical susceptibility, in combination with imipenem [2] [%] | strains with restored clinical susceptibility, in combination with meropenem [2] [%] | zinc removed from enzyme [3] [molar equivalents] | No. of strains with indicated MIC ([4]; MIC 2 mg/L) | No. of strains with indicated MIC ([4]; MIC 8 mg/L) | No. of strains with indicated MIC ([4]; MIC 16 mg/L) | No. of strains with indicated MIC ([4]; MIC 32 mg/L) | No. of strains with indicated MIC ([4]; MIC ≥64 mg/L) | No. of strains with indicated MIC ([5]; MIC 0.5 mg/L) | No. of strains with indicated MIC ([5]; MIC 8 mg/L) | No. of strains with indicated MIC ([5]; MIC 16 mg/L) | No. of strains with indicated MIC ([5]; MIC 32 mg/L) | MIC [6] [µg/mL] | MIC ([7]; Escherichia coli, KPC-2 strains, one value per strain, read-out: MIC) [µg/mL] | MIC ([7]; Escherichia coli, KPC-3 strain, read-out: MIC) [µg/mL] | MIC ([7]; KPC-2 strains, one value per strain, listed as MEM) [µg/mL] |
| --- | --- | --- | --- | --- | --- | --- | --- | --- | --- | --- | --- | --- | --- | --- | --- | --- | --- | --- |
| CN(C[C@H](O)[C@@H](O)[C@H](O)[C@H](O)CO)C(=O)c1ccc(CN(Cc2ccccn2)Cc2ccccn2)nc1 [ZN148] | no potentiation | 15 | 25 | 17 | ~1.8 | – | – | – | – | – | – | – | – | – | – | – | – | – |
| C[C@@H](O)[C@H]1C(=O)N2C(C(=O)O)=C(S[C@@H]3CN[C@H](C(=O)N(C)C)C3)[C@H](C)[C@H]12 [meropenem] | – | – | – | – | – | 1 | 1 | 3 | 10 | 80 | 1 | 3 | 2 | 1 | 8 | 8 | 2 | 4 |
